According to patent publication US20110052697A1, “Aptamer-Directed Drug Delivery” (GWANGJU INSTITUTE OF SCIENCE & TECHNOLOGY, priority 2006, published 2011):
Converted amounts (≈) assume the structure as drawn. “Also recorded” adds a separate entry of the source.

Columns and labels:
PC3 cells [1] = settings: MTT, QD 100 nM, Dox 5 μM
Method: (§1) The prostate LNCaP and PC3 cell lines were grown in 24-well plates in RPMI-1640 and Ham's F-12K medium, respectively, both supplemented with 100 units/ml aqueous penicillin G, 100 μg/ml streptomycin, and 10% FBS (fetal bovine serum) at concentrations to allow 70% confluence in 24 hours (i.e., 40,000 cells/cm^2). […] Cells were incubated with the conjugates for 3 hours at 37° C., washed two times with PBS (1 ml per well), and incubated in fresh growth media for a total of 72 hours. Cell viability was assessed colorimetrically with the MTT reagent (ATCC) following the standard protocol provided by the manufacturer. The absorbance was read with a microplate reader at 570 nm.

LNCaP cells [2] = settings: MTT, QD 100 nM, Dox 5 μM
Method: as §1

PC3 cells [3] = assay: Flow cytometry of cellular uptake, PC3; format: cell-based; settings: PC3 compared to LNCaP; 1.5 μM
Method: (§2) Cellular uptake of the complex was confirmed using flow cytometry (EPICS XL Flow cytometry systems, Beckman Coulter, Inc). Briefly, 5×10^4 cells were seeded onto 12 well plates (n=4) for 24 hours followed by incubation for 2 hours with the complex solution (1.0:1.1 mole ratio of Dox:aptamer) such that final Dox concentration was 1.5 μM. Cells were washed with PBS twice, trypsinized, centrifuged at 1000 rpm for 3 minutes and resuspended in PBS for FACS analysis. Data were processed with EXPO 32 software.

A10 PSMA aptamer = assay: Fluorescence quenching titration of Dox with the A10 PSMA aptamer (Hill plot); format: binding; settings: FIG. 2 inset
Method: A complex comprising the A10 PSMA aptamer (RNA-Tec, Belgium) and doxorubicin (Dox) was generated through the stepwise addition of increasing molar ratio of aptamer to a fixed concentration of doxorubicin (3 μM) in the presence of 0.1 M sodium acetate, 0.05 M sodium chloride, and 0.01 M magnesium chloride. The fluorescence of Dox was measured at 35 minutes by exciting the solution at 480 nm and recording the emission in the interval of 500 nm-720 nm (1.5 mm slit) on a Shimadzu RF-PC100 spectrofluorophotometer.

LNCaP(PSMA+) cells = assay: Cell uptake by confocal laser scanning microscopy, LNCaP; format: cell-based; settings: 1.5 μM Dox, 2 hours
Method: (§3) Prostrate cancer cell lines LNCaP(PSMA+) and PC3 (PSMA−) (5*10^3 cells/mL) were grown in chamber slides in RPMI 1640 media with 10% fetal bovine serum for 24 hours to attain 70% confluence. Before incubation with complex, cells were pre-incubated with OPTIMEM media for 30 minutes, followed by incubation with physical complex of 1.0:1.1 molar ratio of Dox:aptamer with a doxorubicin concentration of 1.5 μM for 2 hours, the cells were washed with PBS twice, fixed with 3.5% HCHO for 10 minutes, washed, mounted with Vector mounting media and cover slipped. Fluorescence images were obtained (Carl Zeiss LSM 510, Ar laser 488, long pass filter 560,63× water lens.)

PC3 (PSMA−) cells = assay: Cell uptake by confocal laser scanning microscopy, PC3; format: cell-based; settings: 1.5 μM Dox, 2 hours
Method: as §3

LNCaP cells [4] = assay: Flow cytometry of cellular uptake, LNCaP; format: cell-based; settings: LNCaP compared to PC3; 1.5 μM
Method: as §2

[5] = cited from earlier work
PC3 cells [6] = settings: cited from earlier work
LNCaP cells [7] = settings: cited from earlier work

Molecule: COc1cccc2c1C(=O)c1c(O)c3c(c(O)c1C2=O)C[C@@](O)(C(=O)CO)C[C@@H]3O[C@H]1C[C@H](N)[C@H](O)[C@H](C)O1 [free Dox, doxorubicin]
- cytotoxicity (PC3 cells [1]): equipotent
- cytotoxicity (LNCaP cells [2]): equipotent
- staining by flow cytometry (PC3 cells [3]): near-identical staining
- Kd expressed as equiv of the aptamer (A10 PSMA aptamer): 0.52 equiv
- uptake / staining by confocal microscopy (LNCaP(PSMA+) cells): readily diffuses through the plasma membrane; also recorded: almost exclusively stains nuclei
- uptake / staining by confocal microscopy (PC3 (PSMA−) cells): readily diffuses through the plasma membrane
- staining by flow cytometry (LNCaP cells [4]): near-identical staining

Molecule: CC(=O)O[C@@]12CO[C@@H]1C[C@H](O)[C@@]1(C)C(=O)[C@H](O)C3=C(C)[C@@H](OC(=O)[C@H](O)[C@@H](NC(=O)OC(C)(C)C)c4ccccc4)C[C@@](O)([C@@H](OC(=O)c4ccccc4)[C@H]21)C3(C)C [Dtxl, docetaxel]
- water solubility [5]: 0.025 µg/mL (≈ 0.0309 µM)

B1: free aptamer: A10 RNA aptamer that binds to the PSMA protein on the surface of prostate cancer cells (Lupold et al., 2002) (nucleic acid)
chain: GGGAGGACGAUGCGGAUCAGCCAUGUUUACGUCACUCCUUGUCAAUCCUCAUCGGCAGACGACUCGCCCGA
modifications: chemistry not given here
- cytotoxicity, previously reported (PC3 cells [6]): no cytotoxicity
- cytotoxicity, previously reported (LNCaP cells [7]): no cytotoxicity
